Assay results from patent US9884846B2, “Crystalline salts of (S)-6-((1 acetylpiperidin-4-yl)amino)-N-(3-(3,4-dihydroisoquinolin-2(1H)-yl)-2-hydroxypropyl)pyrimidine-4-carboxamide” (GlaxoSmithKline Intellectual Property Development Limited, priority 2014, dated 2018).

Assays:
[1] = Solid-state stability on storage (degradation; physical changes by XRPD); type: physicochemical; details: 40° C./75% RH open vessel, and 50° C./Ambient closed vessel
[2] = Photolysis at 1×ICH solid state; type: physicochemical

Row | SMILES | degradation ([1]; after 4 weeks at 25° C./60% RH open vessel) | physical changes by XRPD analysis ([1]; after 6 weeks at 25° C./60% RH open vessel) | degradation by photolysis [2] | form change by XRPD after photolysis [2] | physical changes by XRPD analysis ([1]; after 2 weeks at 25° C./60% RH open vessel)
1 | CC(=O)N1CCC(Nc2cc(C(=O)NC[C@H](O)CN3CCc4ccccc4C3)ncn2)CC1.O=C(O)CCC(=O)O [Compound B, succinate salt of (S)-6-((1-acetylpiperidin-4-yl)amino)-N-(3-(3,4-dihydroisoquinolin-2(1H)-yl)-2-hydroxypropyl)pyrimidine-4-carboxamide] | ≤ 0.4% | No physical changes detected | Approximately 1.4% | no form change observed | –
2 | CC(=O)N1CCC(Nc2cc(C(=O)NC[C@H](O)CN3CCc4ccccc4C3)ncn2)CC1.O=C(O)c1ccccc1 [Compound C, benzoate salt of (S)-6-((1-acetylpiperidin-4-yl)amino)-N-(3-(3,4-dihydroisoquinolin-2(1H)-yl)-2-hydroxypropyl)pyrimidine-4-carboxamide] | – | – | Approximately 1.6% | no form change observed | No physical changes detected
